Assay results: patent US10184115B2, “Mutated cellobiose dehydrogenase with increased substrate specificity” (DIRECTSENS GMBH, priority 2012, dated 2019)

Target: T1, Myriococcum thermophilum cellobiose dehydrogenase (CDH), recombinant wild type, SEQ ID NO: 1 (Thermothelomyces myriococcoides, UniProt A9XK88)
T1 sequence (A9XK88 22-828): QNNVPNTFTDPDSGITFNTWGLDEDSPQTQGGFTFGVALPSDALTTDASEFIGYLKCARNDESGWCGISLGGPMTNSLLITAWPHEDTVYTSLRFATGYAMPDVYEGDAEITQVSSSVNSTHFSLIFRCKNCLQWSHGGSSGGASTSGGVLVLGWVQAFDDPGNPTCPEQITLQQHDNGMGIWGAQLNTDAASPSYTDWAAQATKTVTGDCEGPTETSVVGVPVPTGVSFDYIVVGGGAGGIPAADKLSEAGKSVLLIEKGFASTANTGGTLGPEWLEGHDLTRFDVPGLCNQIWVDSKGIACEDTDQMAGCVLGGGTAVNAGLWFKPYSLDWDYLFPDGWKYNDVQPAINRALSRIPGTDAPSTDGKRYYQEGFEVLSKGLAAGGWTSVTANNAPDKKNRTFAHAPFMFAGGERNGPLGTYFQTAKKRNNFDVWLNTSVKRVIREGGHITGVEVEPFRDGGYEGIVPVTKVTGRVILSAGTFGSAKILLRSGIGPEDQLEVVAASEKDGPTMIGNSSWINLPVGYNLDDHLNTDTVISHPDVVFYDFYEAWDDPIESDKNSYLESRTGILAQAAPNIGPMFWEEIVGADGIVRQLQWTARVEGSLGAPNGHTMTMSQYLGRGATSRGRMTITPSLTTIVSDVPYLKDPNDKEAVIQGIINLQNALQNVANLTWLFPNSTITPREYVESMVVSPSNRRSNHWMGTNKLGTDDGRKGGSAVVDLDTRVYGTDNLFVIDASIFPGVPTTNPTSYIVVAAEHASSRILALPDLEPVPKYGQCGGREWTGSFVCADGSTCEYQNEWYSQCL
Assay: Steady-state kinetics, DCIP assay: M. thermophilum CDH wt
Assay type: biochemical
Settings: apparent, pH 4.5, 30° C.
Method: Enzyme activity was assayed at 30° C. using either the DCIP (Karapetyan et al., 2005 Journal of Biotechnology 121: 34-48) or cytochrome c (Canevascini et al., 1991, European Journal of Biochemistry 198: 43-52) as electron acceptor. […] Stock solutions of carbohydrates used for kinetic measurements were prepared in the respective buffer and allowed to stand overnight for mutarotation, while stock solutions of electron acceptors were prepared in water and immediately used. The reaction stoichiometry is 1 for the two-electron acceptor DCIP (1 mole of DCIP reduced per mole of carbohydrate oxidized), but 2 for the one-electron acceptor cytochrome c. Kinetic constants were calculated by fitting the observed data to the Henri-Michaelis-Menten equation or to the adapted model for substrate inhibition using nonlinear least-squares regression and the program SigmaPlot (Systat Software, San Jose, Calif., USA). […]
Recombinant wild-type CDH as well as variants were produced in 1 L baffled flasks. […] Increase in activity was monitored using the DCIP and the cytochrome c enzyme assays. […]
The sample was loaded on a 20 mL PHE Sepharose FF column (HR26/20) equilibrated with 50 mM Na-acetate buffer pH 5.5 containing 20% ammonium sulfate. […] Fractions were tested for CDH activity and pooled according to the highest Reinheitszahl (RZ, calculated from the absorbance ratio 420 nm/280 nm). […]

Question: With `OC[C@H]1OC(O)[C@H](O)[C@@H](O)[C@@H]1O` (some centres unmarked) [Glucose, glucose] as the compound, how does the kcat read?
Answer: The kcat was 4.8 s⁻¹.

Question: And the kcat/KM?
Answer: Its kcat/KM is 12 M⁻¹ s⁻¹.
